Assay results as given in patent US6589984B1, “Benzofurylpyrone derivatives” (Teijin Limited, priority 1998, dated 2003).

What follows are compounds tested on Human hepatic cancer cells HepG2 (assay: TG production inhibiting activity (14C-acetic acid incorporation into TG) in HepG2 cells). Settings: Homo sapiens, HepG2; group criterion, alternatives: IC50 at least 10 μM and less than 100 μM, or at least 5% and less than 30% inhibition at 1 μM, or at least 30% and less than 50% inhibition at 10 μM.
Format: cell-based
Procedure: Human hepatic cancer cells HepG2 were inoculated into a 24-well plate (Costar No. 3524) at 4×10^4 cells/well, and 1 ml of medium (eRDF medium containing 10% bovine serum (Kyokuto Chemical Co.)) was used for 6 day culturing with 5% CO2 at 37° C. After drawing off the supernatant medium, the cells were freshly rinsed with 1 ml of PBS(−) buffer solution (Takara Shuzo) and drawn off. This procedure was repeated twice and then 1 ml of fresh medium (eRDF medium) was added.
6-(benzofuran-2-yl)-3,5-dimethyl-4-hydroxy-2H-pyran-2-one (Example 2) was dissolved in dimethylsulfoxide (DMSO) to prepare a 20 mM sample stock solution. A diluted solution was obtained by diluting the sample solution with DMSO.
To the cells prepared above there were added the sample stock solution or its diluted solution at 5 μl per well and 10 μl of ^14C-acetic acid solution (a solution of Amersham Code No. CFA13 diluted 4.4-fold with PBS(−) buffer), and culturing was carried out for one day with 5% CO2 at 37° C.
After the culturing was completed, the culture solution was removed, and 1 ml of extraction solution (a mixture of n-hexane and isopropyl alcohol at 2:1) was added for extraction treatment on the lipid components in the cells. After the treatment, the extract containing the obtained lipid components was air-dried, the residue was redissolved in 20 μl of a mixed solution of n-hexane and ethyl acetate at 9:1, and the solution was spotted on a thin-layer chromatography plate (S319, Tokyo Kasei) and developed by thin-layer chromatography with the mixed solution mentioned above. After air-drying, the lipid components were colored with iodine vapor, the portion corresponding to TG was cut out, and the amount of TG biosynthesized was measured with a liquid scintillation counter.
`Cc1c(-c2cc3cc(OC(C)c4ccccc4C(F)(F)F)ccc3o2)oc(=O)c(C)c1O` (centres unmarked) [Example 144, 3,5-dimethyl-4-hydroxy-6-(5-(1-(2-(trifluoromethyl)phenyl)ethoxy)benzofuran-2-yl)-2H-pyran-2-one] showed an IC50 of 10 to 100 µM. In the case of `Cc1c(-c2cc3cc(OCc4cc(Cl)ccc4Cl)ccc3o2)oc(=O)c(C)c1O` [Example 155, 6-(5-(2,5-dichlorobenzyloxy)benzofuran-2-yl)-3,5-dimethyl-4-hydroxy-2H-pyran-2-one], the IC50 is reported as 10 to 100 µM. In the case of `Cc1c(-c2cc3cc(OCc4c(Cl)cccc4Cl)ccc3o2)oc(=O)c(C)c1O` [Example 157, 6-(5-(2,6-dichlorobenzyloxy)benzofuran-2-yl)-3,5-dimethyl-4-hydroxy-2H-pyran-2-one], the IC50 is reported as 10 to 100 µM. Work on `Cc1c(-c2cc3cc(OCc4ccc5ccccc5c4)ccc3o2)oc(=O)c(C)c1O` [Example 175, 3,5-dimethyl-4-hydroxy-6-(5-(2-naphthylmethoxy)benzofuran-2-yl)-2H-pyran-2-one] yielded an IC50 of 10 to 100 µM. In the case of `Cc1c(-c2cc3cc(OCC4COc5ccccc5O4)ccc3o2)oc(=O)c(C)c1O` (centres unmarked) [Example 177, 6-(5-(1,4-benzodioxan-2-ylmethoxy)benzofuran-2-yl)-3,5-dimethyl-4-hydroxy-2H-pyran-2-one], the IC50 is reported as 10 to 100 µM. Compound `CCC=CCCOc1ccc2oc(-c3oc(=O)c(C)c(O)c3C)cc2c1` [Example 179, 3,5-dimethyl-6-(5-(3-hexen-1-yloxy)benzofuran-2-yl)-4-hydroxy-2H-pyran-2-one] has an IC50 of 10 to 100 µM. Compound `CC#CCOc1ccc2oc(-c3oc(=O)c(C)c(O)c3C)cc2c1` [Example 181, 6-(5-(2-butyn-1-yloxy)benzofuran-2-yl)-3,5-dimethyl-4-hydroxy-2H-pyran-2-one] has an IC50 of 10 to 100 µM. `Cc1c(-c2cc3cc(OCC4COC(C)(C)O4)ccc3o2)oc(=O)c(C)c1O` (centres unmarked) [Example 183, 3,5-dimethyl-6-(5-(2,2-dimethyl-1,3-dioxolan-4-ylmethoxy)benzofuran-2-yl)-4-hydroxy-2H-pyran-2-one] gave an IC50 of 10 to 100 µM. `CCOCCOc1ccc2oc(-c3oc(=O)c(C)c(O)c3C)cc2c1` [Example 185, 3,5-dimethyl-6-(5-(2-ethoxyethoxy)benzofuran-2-yl)-4-hydroxy-2H-pyran-2-one] showed an IC50 of 10 to 100 µM. `Cc1c(-c2cc3cc(OCC4(C)COC4)ccc3o2)oc(=O)c(C)c1O` [Example 187, 3,5-dimethyl-4-hydroxy-6-(5-(3-methyloxetan-3-ylmethoxy)benzofuran-2-yl)-2H-pyran-2-one] showed an IC50 of 10 to 100 µM. In the case of `C=CCCCCOc1ccc2oc(-c3oc(=O)c(C)c(O)c3C)cc2c1` [Example 191, 3,5-dimethyl-6-(5-(5-hexen-1-yloxy)benzofuran-2-yl)-4-hydroxy-2H-pyran-2-one], the IC50 is reported as 10 to 100 µM. For `Cc1c(-c2cc3cc(OCC(c4ccccc4)c4ccccc4)ccc3o2)oc(=O)c(C)c1O` [Example 195, 3,5-dimethyl-6-(5-(2,2-diphenylethoxy)benzofuran-2-yl)-4-hydroxy-2H-pyran-2-one], the IC50 was 10 to 100 µM. For `COc1ccc(C(Oc2ccc3oc(-c4oc(=O)c(C)c(O)c4C)cc3c2)c2ccc(OC)cc2)cc1` [Example 201, 6-(5-(bis(4-methoxyphenyl)methoxy)benzofuran-2-yl)-3,5-dimethyl-4-hydroxy-2H-pyran-2-one], the IC50 was 10 to 100 µM. In the case of `Cc1c(-c2cc3cc(OCCCc4ccccc4)ccc3o2)oc(=O)c(C)c1O` [Example 203, 3,5-dimethyl-4-hydroxy-6-(5-(3-phenylpropoxy)benzofuran-2-yl)-2H-pyran-2-one], the IC50 is reported as 10 to 100 µM. With `Cc1c(-c2cc3cc(OCC4CCCCC4)ccc3o2)oc(=O)c(C)c1O` [Example 207, 6-(5-(cyclohexylmethoxy)benzofuran-2-yl)-3,5-dimethyl-4-hydroxy-2H-pyran-2-one] the IC50 was 10 to 100 µM. For `Cc1c(-c2cc3cc(OCCOCc4ccccc4)ccc3o2)oc(=O)c(C)c1O` [Example 213, 6-(5-(2-(benzyloxy)ethoxy)benzofuran-2-yl)-3,5-dimethyl-4-hydroxy-2H-pyran-2-one], the IC50 was 10 to 100 µM. `CCOC(=O)CCCCCOc1ccc2oc(-c3oc(=O)c(C)c(O)c3C)cc2c1` [Example 217, 3,5-dimethyl-6-(5-(5-(ethoxycarbonyl)pentyloxy)benzofuran-2-yl)-4-hydroxy-2H-pyran-2-one] gave an IC50 of 10 to 100 µM. In the case of `Cc1c(-c2cc3cc(OCC4CCCCN4C(=O)OC(C)(C)C)ccc3o2)oc(=O)c(C)c1O` (centres unmarked) [Example 220, 6-(5-(1-t-butoxycarbonylpiperidin-2-ylmethoxy)benzofuran-2-yl)-3,5-dimethyl-4-hydroxy-2H-pyran-2-one], the IC50 is reported as 10 to 100 µM. For `Cc1c(-c2cc3cc(OC4CCN(C(=O)OC(C)(C)C)CC4)ccc3o2)oc(=O)c(C)c1O` [Example 222, 6-(5-(1-t-butoxycarbonylpiperidin-4-yloxy)benzofuran-2-yl)-3,5-dimethyl-4-hydroxy-2H-pyran-2-one], the IC50 was 10 to 100 µM. `Cc1c(-c2cc3cc(OCCCCNC(=O)OC(C)(C)C)ccc3o2)oc(=O)c(C)c1O` [Example 224, 6-(5-(4-(t-butoxycarbonylamino)butoxy)benzofuran-2-yl)-3,5-dimethyl-4-hydroxy-2H-pyran-2-one] gave an IC50 of 10 to 100 µM.

Same assay, conditions: Homo sapiens, HepG2; group criterion, alternatives: IC50 less than 10 μM, or at least 30% inhibition at 1 μM, or at least 50% inhibition at 10 μM
Work on `Cc1ccc(COc2ccc3oc(-c4oc(=O)c(C)c(O)c4C)cc3c2)cc1C` [Example 134, 6-(5-(3,4-dimethylbenzyloxy)benzofuran-2-yl)-3,5-dimethyl-4-hydroxy-2H-pyran-2-one] yielded an IC50 of under 10 µM. For `Cc1c(-c2cc3cc(OCc4cccs4)ccc3o2)oc(=O)c(C)c1O` [Example 138, 3,5-dimethyl-4-hydroxy-6-(5-((2-thienyl)methoxy)benzofuran-2-yl)-2H-pyran-2-one], the IC50 was under 10 µM. Work on `Cc1c(-c2cc3cc(OCc4ccc(Cl)cc4Cl)ccc3o2)oc(=O)c(C)c1O` [Example 153, 6-(5-(2,4-dichlorobenzyloxy)benzofuran-2-yl)-3,5-dimethyl-4-hydroxy-2H-pyran-2-one] yielded an IC50 of under 10 µM. For `Cc1c(-c2cc3cc(OCc4ccc(Cl)c(Cl)c4)ccc3o2)oc(=O)c(C)c1O` [Example 159, 6-(5-(3,4-dichlorobenzyloxy)benzofuran-2-yl)-3,5-dimethyl-4-hydroxy-2H-pyran-2-one], the IC50 was under 10 µM. `CCCCOc1ccc(COc2ccc3oc(-c4oc(=O)c(C)c(O)c4C)cc3c2)cc1` [Example 163, 6-(5-(4-n-butoxybenzyloxy)benzofuran-2-yl)-3,5-dimethyl-4-hydroxy-2H-pyran-2-one] gave an IC50 of under 10 µM. For `Cc1c(-c2cc3ccc(OC4CCCc5ccccc54)cc3o2)oc(=O)c(C)c1O` (centres unmarked) [Example 170, 3,5-dimethyl-4-hydroxy-6-(6-(1,2,3,4-tetrahydronaphthalen-1-yloxy)benzofuran-2-yl)-2H-pyran-2-one], the IC50 was under 10 µM. With `C#CCOc1ccc2oc(-c3oc(=O)c(C)c(O)c3C)cc2c1` [Example 215, 3,5-dimethyl-4-hydroxy-6-(5-(2-propyn-1-yloxy)benzofuran-2-yl)-2H-pyran-2-one] the IC50 was under 10 µM. `Cc1c(-c2cc3cc(OCc4cccc(F)c4)ccc3o2)oc(=O)c(C)c1O` [Example 226, 3,5-dimethyl-6-(5-(3-fluorobenzyloxy)benzofuran-2-yl)-4-hydroxy-2H-pyran-2-one] showed an IC50 of under 10 µM. Compound `Cc1c(-c2cc3cc(OCc4ccc(F)cc4)ccc3o2)oc(=O)c(C)c1O` [Example 228, 3,5-dimethyl-6-(5-(4-fluorobenzyloxy)benzofuran-2-yl)-4-hydroxy-2H-pyran-2-one] has an IC50 of under 10 µM.
